Measurements: PMC4457528, “Identification of Novel Small Molecule Inhibitors of Oncogenic RET Kinase” (PLoS ONE, 2015)

Experiments:
Ba/F3-RET/PTC3 cells = test: Growth curves, Ba/F3 cells expressing RET/PTC3; conditions: Ba/F3 RET/PTC3, without IL-3
Experimental: Fibroblasts were kept in medium supplemented with 5% fetal calf serum. Human cells were kept in 2% (TPC1), 5% (Nthy-ori-3-1), 20% (TT) or 10% (MZ-CRC-1) fetal calf serum. […] Cells were counted every 1–2 (fibroblasts) or 2–3 (human cell lines) days. Ba/F3 cells were kept in 10% fetal calf serum in 6-well dishes (200,000/well) and counted daily for 4 consecutive days, changing media every 2 days.
Differently from Ba/F3 NCOA4-RET, parental Ba/F3 were grown in the presence of IL3. Data are the mean ± SD of two experiments performed in triplicate.

KinomeScan kinase panel [1] = biological target: T1, KinomeScan kinase panel (Homo sapiens, UniProt Q9NRH2); test: KinomeScan kinase panel, single concentration 10 µM; type: binding; conditions: kinase SNRK; 10 µM; read-out: score (%)
T1 construct: purchased DiscoveRx (KinomeScan)
T1 sequence (Q9NRH2 whole entry): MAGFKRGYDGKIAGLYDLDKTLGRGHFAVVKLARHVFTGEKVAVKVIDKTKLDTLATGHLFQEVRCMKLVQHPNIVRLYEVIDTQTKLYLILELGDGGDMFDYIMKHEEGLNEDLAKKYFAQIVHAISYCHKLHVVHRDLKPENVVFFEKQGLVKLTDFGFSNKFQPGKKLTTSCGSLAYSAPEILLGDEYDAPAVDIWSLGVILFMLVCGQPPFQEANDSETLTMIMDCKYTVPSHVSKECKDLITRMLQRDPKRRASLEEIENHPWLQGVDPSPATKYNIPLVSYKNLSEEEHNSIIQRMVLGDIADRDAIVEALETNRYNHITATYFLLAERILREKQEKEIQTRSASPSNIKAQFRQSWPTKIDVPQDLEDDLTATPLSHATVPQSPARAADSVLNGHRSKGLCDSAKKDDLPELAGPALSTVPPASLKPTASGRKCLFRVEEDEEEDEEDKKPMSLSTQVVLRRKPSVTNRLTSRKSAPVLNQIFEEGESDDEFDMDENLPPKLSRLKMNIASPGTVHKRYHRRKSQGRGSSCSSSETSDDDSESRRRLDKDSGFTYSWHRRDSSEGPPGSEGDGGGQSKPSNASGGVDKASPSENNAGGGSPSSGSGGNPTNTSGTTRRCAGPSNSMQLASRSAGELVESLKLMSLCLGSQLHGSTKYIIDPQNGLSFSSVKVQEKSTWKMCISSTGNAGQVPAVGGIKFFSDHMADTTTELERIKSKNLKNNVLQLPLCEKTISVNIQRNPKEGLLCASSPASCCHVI

KinomeScan kinase panel [2] = biological target: T2, KinomeScan kinase panel (Homo sapiens, UniProt P36888, R834Q); test: as above; type: binding; conditions: FLT3(R834Q), 10 µM; read-out: score (%)
T2 construct: purchased DiscoveRx (KinomeScan)

KinomeScan kinase panel [3] = biological target: T3, KinomeScan kinase panel (Homo sapiens, UniProt Q9NWZ3); test: as above; type: binding; conditions: IRAK4, 10 µM
T3 construct: purchased DiscoveRx (KinomeScan)
T3 sequence (Q9NWZ3 whole entry): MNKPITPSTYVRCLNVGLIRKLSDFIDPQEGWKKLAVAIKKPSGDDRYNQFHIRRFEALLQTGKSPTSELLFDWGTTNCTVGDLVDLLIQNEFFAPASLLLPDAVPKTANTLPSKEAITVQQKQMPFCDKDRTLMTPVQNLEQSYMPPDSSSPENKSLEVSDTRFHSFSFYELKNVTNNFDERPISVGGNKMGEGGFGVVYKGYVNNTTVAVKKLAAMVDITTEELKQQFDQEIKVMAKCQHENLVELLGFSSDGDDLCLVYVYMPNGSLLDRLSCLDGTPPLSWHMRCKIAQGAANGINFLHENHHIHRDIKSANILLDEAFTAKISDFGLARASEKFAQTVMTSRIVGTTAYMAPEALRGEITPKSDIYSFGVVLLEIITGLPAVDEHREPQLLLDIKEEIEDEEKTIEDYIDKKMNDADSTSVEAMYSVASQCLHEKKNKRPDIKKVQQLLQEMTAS

KinomeScan kinase panel [4] = biological target: T4, KinomeScan kinase panel (Homo sapiens, UniProt Q96BR1); test: as above; type: binding; conditions: kinase SGK3; 10 µM; read-out: score (%)
T4 construct: purchased DiscoveRx (KinomeScan)

KinomeScan kinase panel [5] = biological target: T5, KinomeScan kinase panel (Homo sapiens, UniProt O14733); test: as above; type: binding; conditions: MKK7, 10 µM
T5 construct: purchased DiscoveRx (KinomeScan)
T5 sequence (O14733 whole entry): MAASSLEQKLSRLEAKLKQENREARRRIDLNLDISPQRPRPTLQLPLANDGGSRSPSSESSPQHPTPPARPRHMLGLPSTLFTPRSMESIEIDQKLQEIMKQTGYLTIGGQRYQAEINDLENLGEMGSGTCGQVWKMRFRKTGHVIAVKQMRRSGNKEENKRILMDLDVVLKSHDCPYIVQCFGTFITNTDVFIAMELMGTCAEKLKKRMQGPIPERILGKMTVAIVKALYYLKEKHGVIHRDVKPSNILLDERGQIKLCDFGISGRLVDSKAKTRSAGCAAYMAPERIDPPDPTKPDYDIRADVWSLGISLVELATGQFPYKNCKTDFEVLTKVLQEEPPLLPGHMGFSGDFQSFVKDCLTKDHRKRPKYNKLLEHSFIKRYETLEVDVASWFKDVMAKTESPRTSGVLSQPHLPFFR

KinomeScan kinase panel [6] = biological target: T6, KinomeScan kinase panel (Homo sapiens, UniProt Q14004); test: as above; type: binding; conditions: CDC2L5, 10 µM
T6 construct: purchased DiscoveRx (KinomeScan)
T6 sequence (Q14004 whole entry): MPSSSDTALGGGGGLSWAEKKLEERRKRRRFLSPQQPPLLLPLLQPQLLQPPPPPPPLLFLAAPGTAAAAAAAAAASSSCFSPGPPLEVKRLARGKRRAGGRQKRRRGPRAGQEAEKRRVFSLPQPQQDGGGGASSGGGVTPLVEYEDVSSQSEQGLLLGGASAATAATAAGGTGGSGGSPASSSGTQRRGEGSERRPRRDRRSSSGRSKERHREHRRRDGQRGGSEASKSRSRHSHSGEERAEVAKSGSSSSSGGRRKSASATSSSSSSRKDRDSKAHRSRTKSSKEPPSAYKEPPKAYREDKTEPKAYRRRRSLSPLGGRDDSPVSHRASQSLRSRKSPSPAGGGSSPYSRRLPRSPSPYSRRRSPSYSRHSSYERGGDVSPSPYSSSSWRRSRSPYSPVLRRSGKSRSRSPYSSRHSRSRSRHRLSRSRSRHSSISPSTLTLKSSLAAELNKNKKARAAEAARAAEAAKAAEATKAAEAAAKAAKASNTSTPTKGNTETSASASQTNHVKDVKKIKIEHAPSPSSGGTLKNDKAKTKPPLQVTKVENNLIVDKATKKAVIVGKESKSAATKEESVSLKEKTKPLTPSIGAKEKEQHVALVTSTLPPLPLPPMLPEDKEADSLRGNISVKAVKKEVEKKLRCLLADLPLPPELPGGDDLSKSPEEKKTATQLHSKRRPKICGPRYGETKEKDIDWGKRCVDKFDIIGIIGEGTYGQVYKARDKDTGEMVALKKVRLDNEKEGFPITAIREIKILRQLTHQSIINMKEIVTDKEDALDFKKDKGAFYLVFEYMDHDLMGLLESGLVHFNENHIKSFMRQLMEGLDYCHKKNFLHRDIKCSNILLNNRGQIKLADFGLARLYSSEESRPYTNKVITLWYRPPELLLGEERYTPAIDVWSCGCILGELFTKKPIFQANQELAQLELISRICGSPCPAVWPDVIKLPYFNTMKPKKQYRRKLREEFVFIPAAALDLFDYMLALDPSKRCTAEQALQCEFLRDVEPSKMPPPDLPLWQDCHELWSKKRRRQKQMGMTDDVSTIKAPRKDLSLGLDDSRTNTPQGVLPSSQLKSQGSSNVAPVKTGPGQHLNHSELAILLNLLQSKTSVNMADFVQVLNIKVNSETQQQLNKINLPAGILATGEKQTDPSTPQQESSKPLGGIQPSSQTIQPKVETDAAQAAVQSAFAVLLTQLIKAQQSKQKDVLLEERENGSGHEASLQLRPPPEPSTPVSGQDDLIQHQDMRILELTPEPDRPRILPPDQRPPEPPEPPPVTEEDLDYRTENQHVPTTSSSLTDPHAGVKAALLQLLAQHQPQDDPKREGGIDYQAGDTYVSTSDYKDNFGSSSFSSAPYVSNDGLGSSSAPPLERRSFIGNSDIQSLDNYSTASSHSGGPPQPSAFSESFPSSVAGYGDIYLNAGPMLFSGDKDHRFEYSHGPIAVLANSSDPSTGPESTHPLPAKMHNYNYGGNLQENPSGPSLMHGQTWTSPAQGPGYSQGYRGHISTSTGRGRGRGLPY

KinomeScan kinase panel [7] = biological target: T7, KinomeScan kinase panel (Homo sapiens, UniProt Q86Y07); test: as above; type: binding; conditions: kinase VRK2; 10 µM; read-out: score (%)
T7 construct: purchased DiscoveRx (KinomeScan)
T7 sequence (Q86Y07 whole entry): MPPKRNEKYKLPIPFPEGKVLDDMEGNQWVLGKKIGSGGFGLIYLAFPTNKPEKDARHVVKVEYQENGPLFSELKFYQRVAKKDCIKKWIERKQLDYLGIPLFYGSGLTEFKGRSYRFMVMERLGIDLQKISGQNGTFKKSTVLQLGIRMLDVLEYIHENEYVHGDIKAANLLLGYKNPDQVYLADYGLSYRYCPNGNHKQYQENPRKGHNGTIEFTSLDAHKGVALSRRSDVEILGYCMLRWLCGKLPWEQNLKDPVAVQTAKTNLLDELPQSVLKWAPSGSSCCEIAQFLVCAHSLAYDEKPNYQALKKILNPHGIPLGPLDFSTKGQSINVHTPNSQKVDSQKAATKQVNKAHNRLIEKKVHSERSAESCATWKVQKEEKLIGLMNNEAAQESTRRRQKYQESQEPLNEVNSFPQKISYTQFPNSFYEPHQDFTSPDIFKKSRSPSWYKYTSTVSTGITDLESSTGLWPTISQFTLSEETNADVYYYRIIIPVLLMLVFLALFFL

KinomeScan kinase panel [8] = biological target: T8, KinomeScan kinase panel (Homo sapiens, UniProt Q9BX84); test: as above; type: binding; conditions: kinase TRPM6; 10 µM; read-out: score (%)
T8 construct: purchased DiscoveRx (KinomeScan)

KinomeScan kinase panel [9] = biological target: T9, KinomeScan kinase panel (Homo sapiens, UniProt Q8TBX8); test: as above; type: binding; conditions: PIP5K2C, 10 µM; read-out: score (%)
T9 construct: purchased DiscoveRx (KinomeScan)
T9 sequence (Q8TBX8 whole entry): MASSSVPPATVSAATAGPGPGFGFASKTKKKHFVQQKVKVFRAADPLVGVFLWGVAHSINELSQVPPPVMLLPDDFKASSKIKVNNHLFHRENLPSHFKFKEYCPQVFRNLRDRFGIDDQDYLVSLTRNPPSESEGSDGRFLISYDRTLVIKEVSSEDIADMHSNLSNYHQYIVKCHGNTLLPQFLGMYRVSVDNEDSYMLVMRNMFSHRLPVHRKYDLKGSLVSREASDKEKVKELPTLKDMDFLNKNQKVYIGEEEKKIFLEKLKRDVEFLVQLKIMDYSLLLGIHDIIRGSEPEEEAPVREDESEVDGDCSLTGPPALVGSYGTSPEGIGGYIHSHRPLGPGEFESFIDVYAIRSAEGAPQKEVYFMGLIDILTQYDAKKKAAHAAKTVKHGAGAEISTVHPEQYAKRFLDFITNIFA

KinomeScan kinase panel [10] = biological target: T10, KinomeScan kinase panel (Homo sapiens, UniProt Q6XUX3); test: as above; type: binding; conditions: kinase RIPK5; 10 µM; read-out: score (%)
T10 construct: purchased DiscoveRx (KinomeScan)
T10 sequence (Q6XUX3 whole entry): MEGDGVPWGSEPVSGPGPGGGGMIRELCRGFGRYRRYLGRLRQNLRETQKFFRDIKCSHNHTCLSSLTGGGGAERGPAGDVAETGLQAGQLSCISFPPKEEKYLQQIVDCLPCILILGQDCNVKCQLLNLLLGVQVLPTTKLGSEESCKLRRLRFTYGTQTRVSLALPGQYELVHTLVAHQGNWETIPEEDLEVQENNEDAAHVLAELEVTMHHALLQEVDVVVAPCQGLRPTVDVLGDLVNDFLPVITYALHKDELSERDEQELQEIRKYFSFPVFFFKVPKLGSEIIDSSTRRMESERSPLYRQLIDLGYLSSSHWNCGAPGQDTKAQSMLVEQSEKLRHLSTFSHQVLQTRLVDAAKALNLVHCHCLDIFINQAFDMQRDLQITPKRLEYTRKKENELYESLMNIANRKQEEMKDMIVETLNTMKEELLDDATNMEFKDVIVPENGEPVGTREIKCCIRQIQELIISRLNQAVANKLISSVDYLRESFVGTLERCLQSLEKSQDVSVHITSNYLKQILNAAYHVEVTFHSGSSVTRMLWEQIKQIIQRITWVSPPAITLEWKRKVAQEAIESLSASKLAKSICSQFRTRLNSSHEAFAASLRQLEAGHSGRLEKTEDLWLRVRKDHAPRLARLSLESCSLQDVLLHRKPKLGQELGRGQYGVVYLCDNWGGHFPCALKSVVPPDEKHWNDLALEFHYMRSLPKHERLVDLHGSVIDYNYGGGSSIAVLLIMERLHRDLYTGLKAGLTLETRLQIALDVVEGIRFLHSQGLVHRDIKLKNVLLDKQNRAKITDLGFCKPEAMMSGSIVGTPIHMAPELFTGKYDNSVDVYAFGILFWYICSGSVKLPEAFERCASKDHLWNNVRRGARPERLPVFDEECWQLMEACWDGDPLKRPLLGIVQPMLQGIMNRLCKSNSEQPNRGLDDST

Structure (SMILES)	effect on RET/PTC3-driven proliferation (Ba/F3-RET/PTC3 cells)	remaining binding at 10 µM (KinomeScan kinase panel [1]) [%]	remaining binding at 10 µM (KinomeScan kinase panel [2]) [%]	score (%) (KinomeScan kinase panel [3])	remaining binding at 10 µM (KinomeScan kinase panel [4]) [%]	score (%) (KinomeScan kinase panel [5])	score (%) (KinomeScan kinase panel [6])	remaining binding at 10 µM (KinomeScan kinase panel [7]) [%]	remaining binding at 10 µM (KinomeScan kinase panel [8]) [%]	remaining binding at 10 µM (KinomeScan kinase panel [9]) [%]	remaining binding at 10 µM (KinomeScan kinase panel [10]) [%]
CCN1CCN(Cc2ccc(NC(=O)c3ccc(C)c(NC(=O)c4cncc(-c5cccs5)c4)c3)cc2C(F)(F)F)CC1 [ALW-II-41-27]	blunted	–	–	–	–	–	–	–	–	–	–
CCN1CCN(Cc2ccc(NC(=O)c3ccc(C)c(C#Cc4cccnc4)c3)cc2C(F)(F)F)CC1 [XMD15-44]	–	34	4.2	nb (Hits values higher than 30% were considered negative (no binding: nb))	6.2	11	6.5	95	49	100	27
